The values below come from paper PMC4835124 (Drug Design, Development and Therapy, 2016).

A short description of one data set: Food effect study. Particulars: for CL/F: Part 2, FDC_EVO5/MET1000 single oral dose, n=27, mean ± SD. The format is in vivo, human.
The nature of data set [1]: Comparative pharmacokinetic study. The settings on record: for CL/F: fasting, n=35, mean ± SD; for Tmax: po.
For data set [2] the following is noted: single administration in healthy volunteers; cited from earlier work.
For data set [3] the following is noted: multiple dosing, 5–20 mg dose range, healthy volunteers; cited from earlier work.
The mark [4] stands for this setting: Part 1, EVO+MET (individual tablets) single oral dose.
The mark [5] stands for this setting: Part 1, FDC_EVO5/MET1000 single oral dose, plasma.

Where two headings read alike, the source gives them in different places.

As usually defined, the CL/F is the apparent clearance, not corrected for the fraction that reaches the circulation. Broadly, the Tmax is the time from dosing to the highest level. For orientation: half-life means the time in which the quantity being followed falls by half.

In the case of `CN(C)C(=N)N=C(N)N` [Metformin, metformin], in the data set “Food effect study” (FDC_EVO5/MET1000 single oral dose), the “increase of AUClast under the fed condition compared to the fasted condition” value was 36%–60%. Also, the CL/F was found to be 112.95 ± 28.61 L/h in “Food effect study” (Fasted), 78.76 ± 20.56 L/h in the data set “Food effect study” (Fed), 126.15 ± 35.21 L/h in data set [1] (setting [4]) and 126.82 ± 38.28 L/h in data set [1] (setting [5]). For the same molecule, the Tmax in data set [1] (male, human, in vivo) was 4 h.
In the case of `CC(C)(C)OC[C@@H]1C(=O)NCCN1C(=O)C[C@H](N)Cc1cc(F)c(F)cc1F` [Evogliptin, evogliptin], the CL/F in the data set “Food effect study” (Fasted) was found to be 25.05 ± 6.68 L/h; in the data set “Food effect study” (Fed), 23.76 ± 5.07 L/h; in data set [1] (setting [4]) it was 28.56 ± 8.64 L/h; in data set [1] (setting [5]), 28.81 ± 9.19 L/h. In addition, the “effect of food on pharmacokinetics” value in “Food effect study” (single oral dose of FDC_EVO5/MET1000, fed vs fasted) is recorded as “did not significantly affect”; in data set [2] it was “not affected by food”. The half-life in data set [2] was ≥ 30 h; in data set [1] (male, human, in vivo, terminal half-life, present study), > 24 h. Besides, the “dose linearity of pharmacokinetics” value in data set [3] was “linear pharmacokinetics”. Moreover, the Tmax in data set [1] (male, human, in vivo) was 5 h. Also, the “intrasubject variability in CL/F” value in data set [1] (present study) is reported as “around 10.0%”.
